In PMC11352961, “Peptide dendrimers transfecting CRISPR/Cas9 plasmid DNA: optimization and mechanism” (RSC Chemical Biology, 2024):
Bridge positions count the residues as written; N and C are the ends. Square brackets hold non-standard residues; d marks the D form. Side chains are listed from the residue outwards. Peptide text beside a SMILES is read from it. I, II: the chains in the order shown. * marks the point of attachment. Stearoyl = CCCCCCCCCCCCCCCCCC(=O)*

Columns and labels:
HEK293 cells = assay: Cell viability by PrestoBlue assay after transfection, HEK cells; type: cell-based; conditions: 4 h
HeLa cells = assay: Cell viability by PrestoBlue assay after transfection, HeLa cells; type: cell-based; conditions: 4 h

For CCCCCCCCCCCCCCCCCC(=O)NCCCC[C@@H](NC(=O)[C@@H](CCCCNC(=O)[C@@H](CC(C)C)NC(=O)[C@@H](CCCCN)NC(=O)[C@@H](CCCCNC(=O)[C@@H](CC(C)C)NC(=O)[C@@H](CCCCN)NC(=O)[C@@H](CCCCNC(=O)[C@@H](CC(C)C)NC(=O)[C@H](N)CCCCN)NC(=O)[C@@H](CC(C)C)NC(=O)[C@H](N)CCCCN)NC(=O)[C@@H](CC(C)C)NC(=O)[C@@H](CCCCN)NC(=O)[C@@H](CCCCNC(=O)[C@@H](CC(C)C)NC(=O)[C@H](N)CCCCN)NC(=O)[C@@H](CC(C)C)NC(=O)[C@H](N)CCCCN)NC(=O)[C@@H](CC(C)C)NC(=O)[C@@H](CCCCN)NC(=O)[C@@H](CCCCNC(=O)[C@@H](CC(C)C)NC(=O)[C@@H](CCCCN)NC(=O)[C@@H](CCCCNC(=O)[C@@H](CC(C)C)NC(=O)[C@H](N)CCCCN)NC(=O)[C@@H](CC(C)C)NC(=O)[C@H](N)CCCCN)NC(=O)[C@@H](CC(C)C)NC(=O)[C@@H](CCCCN)NC(=O)[C@@H](CCCCNC(=O)[C@@H](CC(C)C)NC(=O)[C@H](N)CCCCN)NC(=O)[C@@H](CC(C)C)NC(=O)[C@H](N)CCCCN)C(=O)N[C@H](C)C(N)=O [Z30] (I: H-[dK][dL][dK]([dL-dK])[dK][dL][dK][dK][dL][dK][dK](Stearoyl)[dA]-NH2 / II: H-[dK][dL][dK]([dL-dK])[dK][dL][dK][dK][dL] / III: H-[dK][dL][dK]([dL-dK])[dK][dL] / IV: H-[dK][dL][dK]([dL-dK])[dK][dL]; amide I:6-IV:C, I:9-II:C, II:6-III:C), the “% viability HEK cells” value (HEK293 cells) was 75 ± 1% and the “% viability HeLa cells” value (HeLa cells) was 91 ± 8%.

In the case of CCCCCCCCCCCCCCCCCC(=O)NCCCC[C@@H](NC(=O)[C@@H](CCCCNC(=O)[C@@H](CC(C)C)NC(=O)[C@@H](CC(C)C)NC(=O)[C@@H](CCCCNC(=O)[C@@H](CC(C)C)NC(=O)[C@@H](CCCCN)NC(=O)[C@@H](CCCCNC(=O)[C@@H](CC(C)C)NC(=O)[C@H](N)CCCCN)NC(=O)[C@@H](CC(C)C)NC(=O)[C@H](N)CCCCN)NC(=O)[C@@H](CC(C)C)NC(=O)[C@@H](CCCCN)NC(=O)[C@@H](CCCCNC(=O)[C@@H](CC(C)C)NC(=O)[C@H](N)CCCCN)NC(=O)[C@@H](CC(C)C)NC(=O)[C@H](N)CCCCN)NC(=O)[C@@H](CC(C)C)NC(=O)[C@@H](CC(C)C)NC(=O)[C@@H](CCCCNC(=O)[C@@H](CC(C)C)NC(=O)[C@@H](CCCCN)NC(=O)[C@@H](CCCCNC(=O)[C@@H](CC(C)C)NC(=O)[C@H](N)CCCCN)NC(=O)[C@@H](CC(C)C)NC(=O)[C@H](N)CCCCN)NC(=O)[C@@H](CC(C)C)NC(=O)[C@@H](CCCCN)NC(=O)[C@@H](CCCCNC(=O)[C@@H](CC(C)C)NC(=O)[C@H](N)CCCCN)NC(=O)[C@@H](CC(C)C)NC(=O)[C@H](N)CCCCN)C(N)=O [Z31] (I: H-[dK][dL][dK]([dL-dK])[dK][dL][dK][dL][dL][dK][dK](Stearoyl)-NH2 / II: H-[dK][dL][dK]([dL-dK])[dK][dL][dK][dL][dL] / III: H-[dK][dL][dK]([dL-dK])[dK][dL] / IV: H-[dK][dL][dK]([dL-dK])[dK][dL]; amide I:6-IV:C, I:9-II:C, II:6-III:C), the “% viability HEK cells” value (HEK293 cells) is reported as 96 ± 2% and the “% viability HeLa cells” value (HeLa cells) is reported as 91 ± 6%.

In the case of CCCCCCCCCCCCCCCCCC(=O)NCCCC[C@@H](NC(=O)[C@@H](CCCCNC(=O)[C@@H](CC(C)C)NC(=O)[C@@H](CCCNC(=N)N)NC(=O)[C@@H](CCCCNC(=O)[C@@H](CC(C)C)NC(=O)[C@@H](CCCNC(=N)N)NC(=O)[C@@H](CCCCNC(=O)[C@@H](CC(C)C)NC(=O)[C@H](N)CCCNC(=N)N)NC(=O)[C@@H](CC(C)C)NC(=O)[C@H](N)CCCNC(=N)N)NC(=O)[C@@H](CC(C)C)NC(=O)[C@@H](CCCNC(=N)N)NC(=O)[C@@H](CCCCNC(=O)[C@@H](CC(C)C)NC(=O)[C@H](N)CCCNC(=N)N)NC(=O)[C@@H](CC(C)C)NC(=O)[C@H](N)CCCNC(=N)N)NC(=O)[C@@H](CC(C)C)NC(=O)[C@@H](CCCNC(=N)N)NC(=O)[C@@H](CCCCNC(=O)[C@@H](CC(C)C)NC(=O)[C@@H](CCCNC(=N)N)NC(=O)[C@@H](CCCCNC(=O)[C@@H](CC(C)C)NC(=O)[C@H](N)CCCNC(=N)N)NC(=O)[C@@H](CC(C)C)NC(=O)[C@H](N)CCCNC(=N)N)NC(=O)[C@@H](CC(C)C)NC(=O)[C@@H](CCCNC(=N)N)NC(=O)[C@@H](CCCCNC(=O)[C@@H](CC(C)C)NC(=O)[C@H](N)CCCNC(=N)N)NC(=O)[C@@H](CC(C)C)NC(=O)[C@H](N)CCCNC(=N)N)C(=O)N[C@H](C)C(N)=O [Z35] (I: H-[dR][dL][dK]([dL-dR])[dR][dL][dK][dR][dL][dK][dK](Stearoyl)[dA]-NH2 / II: H-[dR][dL][dK]([dL-dR])[dR][dL][dK][dR][dL] / III: H-[dR][dL][dK]([dL-dR])[dR][dL] / IV: H-[dR][dL][dK]([dL-dR])[dR][dL]; amide I:6-IV:C, I:9-II:C, II:6-III:C), the “% viability HEK cells” value (HEK293 cells) is reported as 72 ± 5% and the “% viability HeLa cells” value (HeLa cells) is reported as 94 ± 6%.

In the case of CC(C)C[C@H](NC(=O)[C@H](CCCCN)NC(=O)[C@H](CCCCNC(=O)[C@H](CC(C)C)NC(=O)[C@H](CCCCN)NC(=O)[C@H](CCCCNC(=O)[C@H](CC(C)C)NC(=O)[C@@H](N)CCCCN)NC(=O)[C@H](CC(C)C)NC(=O)[C@@H](N)CCCCN)NC(=O)[C@H](CC(C)C)NC(=O)[C@H](CCCCN)NC(=O)[C@H](CCCCNC(=O)[C@H](CC(C)C)NC(=O)[C@@H](N)CCCCN)NC(=O)[C@H](CC(C)C)NC(=O)[C@@H](N)CCCCN)C(=O)NCCCC[C@H](NC(=O)[C@H](CC(C)C)NC(=O)[C@H](CCCCN)NC(=O)[C@H](CCCCNC(=O)[C@H](CC(C)C)NC(=O)[C@H](CCCCN)NC(=O)[C@H](CCCCNC(=O)[C@H](CC(C)C)NC(=O)[C@@H](N)CCCCN)NC(=O)[C@H](CC(C)C)NC(=O)[C@@H](N)CCCCN)NC(=O)[C@H](CC(C)C)NC(=O)[C@H](CCCCN)NC(=O)[C@H](CCCCNC(=O)[C@H](CC(C)C)NC(=O)[C@@H](N)CCCCN)NC(=O)[C@H](CC(C)C)NC(=O)[C@@H](N)CCCCN)C(=O)NCC(=O)N[C@@H](CO)C(=O)N[C@@H](CS)C(N)=O [G123KL, reference compound] (I: H-KLK([Leu-Lys])KLKKLKGSC-NH2 / II: H-KLK([Leu-Lys])KLKKL / III: H-KLK([Leu-Lys])KL / IV: H-KLK([Leu-Lys])KL; amide I:6-IV:C, I:9-II:C, II:6-III:C), the “% viability HEK cells” value (HEK293 cells) is reported as 52 ± 9%.
